In US3946018A, “1,4-Dihydro-3 (2H)-isoquinolinone derivatives” (priority 1973, dated 1976):
Counter-ions that a name gives are not always drawn. Like-named read-outs stand apart in the source and are kept apart here.

How the values were obtained:
white mice [1] = assay: Maximum Electroshock Seizure Test (electroshock-inhibiting effect); format: in vivo, white mice of both sexes; conditions: for Protective Index: ED50 rotarod divided by ED50 ES; for ED50: Mus musculus, read-out: ED50 ES
Protocol: (§1) The pharmacological properties of the new compounds were tested on white mice of both sexes, weighing 16 to 24 g. The new compounds were administered orally through a metal stomach tube, in the form of a 5 per cent suspension in a medium containing Tween 80 as suspending agent.
The electroshock-inhibiting effect of the compounds was examined on groups each consisting of 10, individually caged mice. The anticonvulsive activity was tested by the "Maximum Electroshock Seizure Test" of Swinyard, et al. (Epilepsia 10, 107 /1969/), and the inhibition of the tonic extension of the hind limbs was evaluated. […] The results were evaluated according to the method of Lichtfield and Wilcoxon. The electroshock was provoked using corneal electrodes, under the following parameters: 50 Hz, 0.3 sec. 3 msec; the current intensity varied between 28 and 34 mA (a current intensity was maintained that was sufficient to provoke spasm in each of the 10 animals).
The activities of the compounds with protecting effect against electroshock were compared by the so-called protective index, which was calculated by dividing the individual ED5o rotarod values with the corresponding ED5o ES values. The greater this ratio, the more remote the dosis protecting against electroshock is from the dosis causing muscle relaxation.
(§2) For comparison various known and widely used pharmacons, namely phenobarbital (5-ethyl-5-phenylbarbituric acid), phenytoin (5,5-diphenylhydantoine) and trimethadion (3,5,5-trimethyl-2,4-oxazolidine-dione) were also tested under the same conditions.

[2] = acute oral toxicity (LD50) in mice; conditions: mouse, in vivo
Protocol: (§3) The LD5o values of the compounds were determined on groups each consisting of 8 mice. The results were evaluated according to the method of Lichtfield and Wilcoxon (J. Pharmacol. exp. Therap. 96, 99 / 1949/).

white mice [3] = assay: inhibition of pentamethylenetetrazole-provoked spasm; format: in vivo, white mice of both sexes; conditions: Mus musculus, read-out: ED50 pentamethylenetetrazole
Protocol: The inhibiting effect on pentamethylenetetrazoleprovoked spasm was tested on groups each consisting of 12 individually caged, randomized mice, by the method of Orloff (Proc. Soc. Exp. Biol. Med. N.Y., 70, 254 /1949/). The pentamethylenetetrazole spasm threshold was determined by the slow (0.05 ml./10 sec.) intravenous administration of a 0.5 % pentamethylenetetrazole solution, and the influence of the compounds on the spasm threshold was examined. In every case, the tonic extension of the hind limbs was regarded as spasm.

in vivo = conditions: mouse, po
Protocol: as §1
The paralyzing effect of the compounds was tested on groups each consisting of 8 mice, by the rotarod test. The ED5o rotarod value corresponds to the dosis, which, one hour after the administration, causes 50 per cent of the test animals to fall down from the rotarod within 3 minutes. The neurotoxic activity was evaluated according to the method of Lichtfield and Wilcoxon.
as §2

white mice [4] = assay: acute oral toxicity (LD50) in mice; conditions: mouse, in vivo, po
Protocol: as §3

[5] = oral, mice, 3 h., inhibition of tonic extension of the hind limbs, protection of 50 % of animals
[6] = oral, mice, 3 h., 0.5 % pentamethylenetetrazole slow i.v., tonic extension of the hind limbs regarded as spasm

Row | Compound | Protective Index (white mice [1]) | ED50 (white mice [1]; [5]) [mg/kg] | LD50 ([2]; po) [mg/kg] | ED50 (white mice [3]; [6]) [mg/kg] | TD50 (in vivo) [mg/kg] | LD50 ([2]; oral, mice, read-out: LD50) [mg/kg] | LD50 (white mice [4]) [mg/kg] | ED50 (white mice [1]; po, 3 h) [mg/kg] | ED50 (white mice [3]; po, 3 h) [mg/kg] | TD50 (in vivo; in vivo) [mg/kg]
1 | CCCNCC(=O)Nc1ccc(C2NC(=O)C(C(C)C)c3ccccc32)cc1 (centres unmarked) [Example 8, 1,4-Dihydro-4-isopropyl-1-(4'-/propylaminoacetyl/-amino-phenyl)-3(2H)-isoquinolinone] | ~2.5 | ~20 | 600 to 800 | 50 | ~50 | – | – | – | – | –
2 | CCCNCC(=O)Nc1ccc(C2NC(=O)C(C)(C)c3ccccc32)cc1 (centres unmarked) [Example 6, 1,4-Dihydro-4,4-dimethyl-1-(4'-/propylaminoacetyl/-amino-phenyl)3-(2H)-isoquinolinone] | 13.6 | 32 | 1600 | 100 | 435 | – | – | – | – | –
3 | CN1C(=O)OC(C)(C)C1=O [3,5,5-trimethyl-2,4-oxazolidine-dione, reference compound] | 0.77 | 440 | – | 62 | 340 | 1750 | – | – | – | –
4 | CNCC(=O)Nc1ccc(C2NC(=O)C(C)(C)c3ccccc32)cc1 (centres unmarked) [Example 13, 1,4-Dihydro-4,4-dimethyl-1-(4'-/methylaminoacetyl/-amino-phenyl)-3(2H)-isoquinolinone maleate] | ~32 | 25 | – | – | ~800 | – | > 2000 | – | – | –
5 | CCNCC(=O)Nc1ccc(C2NC(=O)Cc3ccccc32)cc1 (centres unmarked) [Example 9, 1,4-Dihydro-1-(4'-/ethylaminoacetyl/-amino-phenyl)-3(2H)-isoquinolinone] | 51 | 10.2 | – | 50 | 520 | – | > 1600 | – | – | –
6 | CCCCNCC(=O)Nc1ccc(C2NC(=O)C(C)(C)c3ccccc32)cc1 (centres unmarked) [Example 15, 1,4-Dihydro-1-(4'-/butylaminoacetyl/-amino-phenyl)-4,4-dimethyl-3(2H)-isoquinolinone] | ~10 | 29 | > 1000 | – | ~300 | – | – | – | – | –
7 | CCCNCC(=O)Nc1ccc(C2NC(=O)Cc3ccccc32)cc1 (centres unmarked) [Example 5, 1,4-Dihydro-1-(4'-/propylaminoacetyl/-amino-phenyl)-3(2H)-isoquinolinone] | 24 | 21 | ~2000 | 50 | 490 | – | – | – | – | –
8 | CC(C)NCC(=O)Nc1ccc(C2NC(=O)Cc3ccccc32)cc1 (centres unmarked) [Example 12, 1,4-Dihydro-1-(4'-/isopropylaminoacetyl/-aminophenyl)-3(2H)-isoquinolinone] | 26 | 10.5 | – | 100 | 270 | – | > 1000 | – | – | –
9 | CNCC(=O)Nc1ccc(C2NC(=O)Cc3ccccc32)cc1 (centres unmarked) [Example 11, 1,4-Dihdryo-1-(4'-/methylaminoacetyl/-amino-phenyl)-3(2H)-isoquinolinone] | ~12 | 22 | ~600 | 50 | 270 | – | – | – | – | –
10 | CCNCC(=O)Nc1ccc(C2NC(=O)C(C)(C)c3ccccc32)cc1 (centres unmarked) [Example 10, 1,4-Dihydro-1-(4'-/ethylaminoacetyl/-amino-phenyl)-4,4-dimethyl-3(2H)-isoquinolinone] | ~2 | > 300 | – | 50 | 760 | – | > 2000 | – | – | –
11 | CC(C)NCC(=O)Nc1ccc(C2NC(=O)C(C)(C)c3ccccc32)cc1 (centres unmarked) [Example 14, 1,4-Dihydro-4,4-dimethyl-1-(4'-/isopropylaminoacetyl/-amino-phenyl)-3(2H)-isoqinolinone] | ~59 | 27 | – | – | ~1600 | – | > 2000 | – | – | –
12 | CCCNCC(=O)Nc1ccc(C2NC(=O)C(C)c3ccccc32)cc1 (centres unmarked) [Example 7, 1,4-Dihydro-4-methyl-1-(4'-/propylaminoacetyl/-aminophenyl)-3(2H)-isoquinolinone] | 15.4 | 22 | – | 50 | 340 | – | > 1600 | – | – | –
13 | CCC1(c2ccccc2)C(=O)NC(=O)NC1=O [5-ethyl-5-phenyl-barbituric acid, 5-ethyl-5-phenylbarbituric acid, reference compound] | 2.5 | – | – | – | – | 180 | – | 15 | 15 | 38
14 | CCN(CC)CC(=O)Nc1ccc(C2NC(=O)C(C)(C)c3ccccc32)cc1 (centres unmarked) [Example 16, 1,4-Dihydro-1-(4'-/N,N-diethylaminoacetyl/-amino-phenyl)-4,4-dimethyl-3(2H)-isoquinolinone] | ~15 | ~88 | ~1600 | – | ~1300 | – | – | – | – | –
15 | O=C1NC(=O)C(c2ccccc2)(c2ccccc2)N1 [5,5-diphenyl-hidantoine, 5,5-diphenylhydantoine, reference compound] | 1.0 | 10 | – | 25 | 10 | 300 | – | – | – | –
